Assay results from patent US6706663B2, “Herbicidal 3-heterocyclic substituted benzisothiazole and benzisoxazole compounds” (Wyeth, priority 2000, dated 2004).

Legend:
[1] = tested on: ABUTH (Abutilon theophrasti); assay: Postemergence herbicidal evaluation; format: in vivo, Medic.
Procedure, shortened: (§1)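 Seedlings grown for about two weeks were sprayed postemergence and then kept under standard greenhouse care. Injury was rated visually 4–5 weeks after treatment on a 0–9 scale against untreated controls, and ratings from repeat tests were averaged.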

GALAP (Galium aparine) = assay: Postemergence herbicidal evaluation; format: in vivo
Procedure, shortened: as §1

[2] = tested on: IPOHE (Ipomoea hederacea); assay: Postemergence herbicidal evaluation; format: in vivo, (L.) Jacq.
Procedure, shortened: as §1

[3] = tested on: ECHCG (Echinochloa crus-galli); assay: Postemergence herbicidal evaluation; format: in vivo, (L.) Beau
Procedure, shortened: as §1

SETVI (Setaria viridis) [4] = assay: Postemergence herbicidal evaluation; format: in vivo, (L.) Beau
Procedure, shortened: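 Seedlings grown about two weeks were sprayed with compound in 50/50 acetone/water containing 0.5% TWEEN 20, at about 0.0040 to 1.000 kg/ha via nozzle at 40 psi. Plants were kept under greenhouse conditions and visually rated on a 0-9 scale versus control four to five weeks after treatment; replicate tests averaged.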

[5] = tested on: GLXMAW (Soybean, Williams); assay: Postemergence herbicidal evaluation; format: in vivo, Glycine max, (L.) Merr. cv Williams
Procedure, shortened: as §1

ORYSAT (Rice, Tebonnet) [6] = assay: Postemergence herbicidal evaluation; format: in vivo, Oryza sativa, (L.) Tebonnet
Procedure, shortened: as §1

ZEAMX (Corn, Field) = assay: Postemergence herbicidal evaluation; format: in vivo, Zea mays, L.
Procedure, shortened: as §1

[7] = tested on: AMBEL (Ambrosia artemisifolia); assay: Preemergence herbicidal evaluation; format: in vivo, L.; conditions: preemergence, rated 4-5 weeks after treatment
Procedure, shortened: (§2)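 Seeds mixed with potting soil were planted atop about one inch of soil, then sprayed with test compound in aqueous acetone. Cups were kept in the greenhouse and rated visually 4–5 weeks after treatment on a 0–9 scale against untreated control.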

[8] = tested on: CASOB (Cassia obtusifolia); assay: Preemergence herbicidal evaluation; format: in vivo, L.; conditions: preemergence, rated 4-5 weeks after treatment
Procedure, shortened: as §2

[9] = tested on: CHEAL (Chenopodium album); assay: Preemergence herbicidal evaluation; format: in vivo, L.; conditions: preemergence, rated 4-5 weeks after treatment
Procedure, shortened: as §2

[10] = tested on: IPOHE (Ipomoea hederacea); assay: Preemergence herbicidal evaluation; format: in vivo, (L.) Jacq.; conditions: preemergence, rated 4-5 weeks after treatment
[11] = tested on: ECHCG (Echinochloa crus-galli); assay: Preemergence herbicidal evaluation; format: in vivo, (L.) Beau; conditions: preemergence, rated 4-5 weeks after treatment
Procedure, shortened: as §2

SETVI (Setaria viridis) [12] = assay: Preemergence herbicidal evaluation; format: in vivo, (L.) Beau; conditions: preemergence, rated 4-5 weeks after treatment
Procedure, shortened: as §2

ORYSAT (Rice, Tebonnet) [13] = assay: Preemergence herbicidal evaluation; format: in vivo, Oryza sativa, (L.) Tebonnet; conditions: preemergence, rated 4-5 weeks after treatment
[14] = tested on: ECHORC (Echinochloa oryzoides); assay: Flooded paddy, preemergence weed control; format: in vivo, Echinochloa oryzoides (Ard.) Fritsch.; conditions: rated 3-4 weeks after treatment, 0-9 rating scale
Procedure, shortened: (§3)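 Ratings of 0-9 reflect visual comparison with a control for stand, vigor, deformity, size, chlorosis and overall look. Propagules were placed in shallow silt loam (top 0.5 cm) under a continuous 1.5–3 cm flood and grown in the greenhouse.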

CYPIR (Cyperus iria) = assay: Flooded paddy, preemergence weed control; format: in vivo; conditions: rated 3-4 weeks after treatment, 0-9 rating scale
Procedure, shortened: as §3

[15] = tested on: MOOVA (Monochoria vaginalis); assay: Flooded paddy, preemergence weed control; format: in vivo, Presl.; conditions: rated 3-4 weeks after treatment, 0-9 rating scale
Procedure, shortened: as §3

[16] = tested on: SAGPY (Sagittaria pygmaea); assay: Flooded paddy, preemergence weed control; format: in vivo, L.; conditions: rated 3-4 weeks after treatment, 0-9 rating scale
Procedure, shortened: as §3

ORYSAT (Rice, Tebonnet) [17] = assay: Flooded paddy, post-transplant rice tolerance; format: in vivo, Oryza sativa, (L.) Tebonnet; conditions: flooded paddy, post-transplant rice, rated 3-4 weeks after treatment, 0-9 rating scale
Procedure, shortened: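 Two ten-day-old seedlings were transplanted into silt loam, flooded and held at 1.5 to 3 cm water above the soil before herbicide treatment. Pots stayed in the greenhouse at that water level. Injury was scored visually on a 0-9 scale versus untreated control.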

## Cn1c(C(F)(F)F)cc(=O)n(-c2ccc3snc(-c4ccccn4)c3c2)c1=O [Compound 9, 1-methyl-3-[3-(2-pyridyl)-1,2-benzisothiazol-5-yl]-6-(trifluoromethyl)uracil]
[1]; rate 0.0320 kg/ha
  Postemergence herbicidal rating, ABUTH: 9.0
[1]; rate 0.0620 kg/ha
  Postemergence herbicidal rating, ABUTH: 9.0
[1]; rate 0.1250 kg/ha
  Postemergence herbicidal rating, ABUTH: 9.0
GALAP (Galium aparine); rate 0.0320 kg/ha
  Postemergence herbicidal rating, GALAP: 7.0
GALAP (Galium aparine); rate 0.0620 kg/ha
  Postemergence herbicidal rating, GALAP: 7.0
GALAP (Galium aparine); rate 0.1250 kg/ha
  Postemergence herbicidal rating, GALAP: 5.0
[2]; rate 0.0320 kg/ha
  Postemergence herbicidal rating, IPOHE: 9.0
[2]; rate 0.0620 kg/ha
  Postemergence herbicidal rating, IPOHE: 9.0
[2]; rate 0.1250 kg/ha
  Postemergence herbicidal rating, IPOHE: 9.0
[3]; rate 0.0320 kg/ha
  Postemergence herbicidal rating, ECHCG: 1.0
[3]; rate 0.0620 kg/ha
  Postemergence herbicidal rating, ECHCG: 2.0
[3]; rate 0.1250 kg/ha
  Postemergence herbicidal rating, ECHCG: 8.0
SETVI (Setaria viridis) [4]; rate 0.0320 kg/ha
  Postemergence herbicidal rating, SETVI: 8.0
SETVI (Setaria viridis) [4]; rate 0.0620 kg/ha
  Postemergence herbicidal rating, SETVI: 9.0
SETVI (Setaria viridis) [4]; rate 0.1250 kg/ha
  Postemergence herbicidal rating, SETVI: 9.0
[5]; rate 0.0320 kg/ha
  Postemergence herbicidal rating, GLXMAW: 8.3
[5]; rate 0.0620 kg/ha
  Postemergence herbicidal rating, GLXMAW: 8.3
[5]; rate 0.1250 kg/ha
  Postemergence herbicidal rating, GLXMAW: 9.0
ORYSAT (Rice, Tebonnet) [6]; rate 0.0320 kg/ha
  Postemergence herbicidal rating, ORYSAT: 3.8
ORYSAT (Rice, Tebonnet) [6]; rate 0.0620 kg/ha
  Postemergence herbicidal rating, ORYSAT: 4.3
ORYSAT (Rice, Tebonnet) [6]; rate 0.1250 kg/ha
  Postemergence herbicidal rating, ORYSAT: 3.0
ZEAMX (Corn, Field); rate 0.0320 kg/ha
  Postemergence herbicidal rating, ZEAMX: 5.3
ZEAMX (Corn, Field); rate 0.0620 kg/ha
  Postemergence herbicidal rating, ZEAMX: 5.8
ZEAMX (Corn, Field); rate 0.1250 kg/ha
  Postemergence herbicidal rating, ZEAMX: 5.5
[7]; Rate 0.0620 kg/ha
  AMBEL preemergence herbicidal rating: 6.3
[7]; Rate 0.1250 kg/ha
  AMBEL preemergence herbicidal rating: 9.0
[7]; Rate 0.2500 kg/ha
  AMBEL preemergence herbicidal rating: 9.0
[8]; Rate 0.0620 kg/ha
  CASOB preemergence herbicidal rating: 1.0
[8]; Rate 0.1250 kg/ha
  CASOB preemergence herbicidal rating: 2.7
[8]; Rate 0.2500 kg/ha
  CASOB preemergence herbicidal rating: 6.3
[9]; Rate 0.0620 kg/ha
  CHEAL preemergence herbicidal rating: 9.0
[9]; Rate 0.1250 kg/ha
  CHEAL preemergence herbicidal rating: 9.0
[9]; Rate 0.2500 kg/ha
  CHEAL preemergence herbicidal rating: 9.0
[10]; Rate 0.0620 kg/ha
  IPOHE preemergence herbicidal rating: 6.3
[10]; Rate 0.1250 kg/ha
  IPOHE preemergence herbicidal rating: 8.3
[10]; Rate 0.2500 kg/ha
  IPOHE preemergence herbicidal rating: 9.0
[11]; Rate 0.0620 kg/ha
  ECHCG preemergence herbicidal rating: 8.3
[11]; Rate 0.1250 kg/ha
  ECHCG preemergence herbicidal rating: 9.0
[11]; Rate 0.2500 kg/ha
  ECHCG preemergence herbicidal rating: 9.0
SETVI (Setaria viridis) [12]; Rate 0.0620 kg/ha
  SETVI preemergence herbicidal rating: 9.0
SETVI (Setaria viridis) [12]; Rate 0.1250 kg/ha
  SETVI preemergence herbicidal rating: 9.0
SETVI (Setaria viridis) [12]; Rate 0.2500 kg/ha
  SETVI preemergence herbicidal rating: 9.0
ORYSAT (Rice, Tebonnet) [13]; Rate 0.0620 kg/ha
  ORYSAT preemergence herbicidal rating: 4.3
ORYSAT (Rice, Tebonnet) [13]; Rate 0.1250 kg/ha
  ORYSAT preemergence herbicidal rating: 6.7
ORYSAT (Rice, Tebonnet) [13]; Rate 0.2500 kg/ha
  ORYSAT preemergence herbicidal rating: 8.0
[14]; rate 0.0080 kg/ha
  herbicidal rating, ECHORC: 4.0
[14]; rate 0.0320 kg/ha
  herbicidal rating, ECHORC: 7.0
[14]; rate 0.1250 kg/ha
  herbicidal rating, ECHORC: 9.0
CYPIR (Cyperus iria); rate 0.0080 kg/ha
  herbicidal rating, CYPIR: 8.0
CYPIR (Cyperus iria); rate 0.0320 kg/ha
  herbicidal rating, CYPIR: 7.0
CYPIR (Cyperus iria); rate 0.1250 kg/ha
  herbicidal rating, CYPIR: 9.0
[15]; rate 0.0080 kg/ha
  herbicidal rating, MOOVA: 8.0
[15]; rate 0.0320 kg/ha
  herbicidal rating, MOOVA: 9.0
[15]; rate 0.1250 kg/ha
  herbicidal rating, MOOVA: 9.0
[16]; rate 0.0080 kg/ha
  herbicidal rating, SAGPY: 0.0
[16]; rate 0.0320 kg/ha
  herbicidal rating, SAGPY: 3.0
[16]; rate 0.1250 kg/ha
  herbicidal rating, SAGPY: 9.0
ORYSAT (Rice, Tebonnet) [17]; rate 0.0080 kg/ha
  herbicidal rating, ORYSAT (rice tolerance): 4.0
ORYSAT (Rice, Tebonnet) [17]; rate 0.0320 kg/ha
  herbicidal rating, ORYSAT (rice tolerance): 3.0
ORYSAT (Rice, Tebonnet) [17]; rate 0.1250 kg/ha
  herbicidal rating, ORYSAT (rice tolerance): 6.0
